Here are results for 19 molecules from patent publication US4705799A, “Aminomethyl oxooxazolidinyl benzenes useful as antibacterial agents” (E. I. Du Pont de Nemours and Company, priority 1985, dated 1987).

Molecules are shown by their SMILES. Converted amounts (≈) assume the structure as drawn. Where only a bound is given, the exact number is not on record here.

Data set [1] has as its system Staphylococcus epidermidis. The experiment in a line: In vitro broth dilution minimal inhibitory concentration (standard microdilution method). The data set is classed as cell-based. To be noted: 24 h, Mueller-Hinton broth, 24-hour, read-out: Microdilution Broth MIC. (In broth dilution the organism is exposed to a series of concentrations in liquid medium.)
In data set [2] the test system is Staphylococcus aureus. Put plainly: In vivo efficacy of orally administered compounds in mouse intraperitoneal infections. To be noted: for ED50: Staphylococcus aureus, po, 168 h, mouse i.p. Staphylococcus aureus infection, oral, dosed at infection and 4 h post-infection, 7 days, read-out: ED50 (50 percent effective dose).
Data set [3] has as its system Escherichia coli. Put plainly: In vitro broth dilution minimal inhibitory concentration (standard microdilution method). To be noted: for MIC: Escherichia coli, Mueller-Hinton broth, 24-hour, read-out: Microdilution Broth MIC. The data set is classed as cell-based.
The subject of data set [4] is Staphylococcus aureus. The experiment in a line: In vitro test, same procedures as microdilution MIC. It counts as cell-based. To be noted: same procedures as Table 9. The source says:
It is believed that the compound of Example 123 would provide control at higher concentrations or under different conditions.

The subject of data set [5] is Staphylococcus aureus. The experiment in a line: In vivo efficacy of compounds administered subcutaneously in mouse intraperitoneal infections. To be noted: sc, 168 h; mouse i.p. Staphylococcus aureus infection; subcutaneous; dosed at infection and 4 h post-infection; 7 days; read-out: ED50 (50 percent effective dose).
Data set [6] in a line: Water solubility (observation). It counts as physicochemical.
The subject of data set [7] is Escherichia coli. The experiment in a line: In vivo efficacy of orally administered compounds in mouse intraperitoneal infections. To be noted: 168 h; mouse i.p. Escherichia coli infection; oral; dosed at infection and 4 h post-infection; 7 days; read-out: ED50 (50 percent effective dose).
The test system of data set [8] is Escherichia coli. Put plainly: In vivo efficacy of compounds administered subcutaneously in mouse intraperitoneal infections. To be noted: sc, 168 h; mouse i.p. Escherichia coli infection; subcutaneous; dosed at infection and 4 h post-infection; 7 days; read-out: ED50 (50 percent effective dose).

As usually defined, the MIC is the lowest concentration found to suppress growth. For orientation: ED50 means the dose at which the effect has come halfway, by size or by number of responders. As to `CCCCCCN(CC1CN(c2ccc(S(C)(=O)=O)cc2)C(=O)O1)C(=O)OC` (racemic) [Example 123, (dl)-N-hexyl-N-[3-[4-(methylsulfonyl)phenyl]-2-oxooxazolidin-5-ylmethyl]carbamic acid, methyl ester], the MIC (in data set [1]; in the data set on Escherichia coli [3]) was more than 200 µg/mL in each case. The 50% effective dose (ED50) in the data set with Staphylococcus aureus [2] was found to be 27.6 mg/kg; in the data set on Staphylococcus aureus [5], 46.6 mg/kg. Moreover, the “antibacterial effect in vivo” value in the data set with Staphylococcus aureus [2] (in vivo, see Tables 10 and 11) is “found to exhibit an antibacterial effect in vivo”. In the data set on Escherichia coli [3] (same procedures as Table 9, result in words), the “control of Escherichia coli in vitro” value was “no control”. Further, the “control of Staphylococcus aureus in vitro” value with Staphylococcus aureus [4] was “no control”.

With `CC(=O)NCC1CN(c2ccc(NS(C)(=O)=O)cc2)C(=O)O1` (single isomer, unassigned) [Example 151, (l)-N-[3-[4-(Methylsulfonylamino)phenyl]-2-oxooxazolidin-5-ylmethyl]acetamide], the minimum inhibitory concentration (MIC) in data set [1] was 200 µg/mL (≈ 611 µM); with Escherichia coli [3], more than 200 µg/mL. For the same molecule, the ED50 in the data set on Staphylococcus aureus [2] was found to be 62.9 mg/kg; with Staphylococcus aureus [5] it was 9.7 mg/kg. In data set [6], the water solubility entry is “quite water soluble”.

Take `CNS(=O)(=O)c1ccc(N2CC(CNC(C)=O)OC2=O)cc1` (stereo not drawn) [Example 46]: the MIC was 12.5 µg/mL (≈ 38.2 µM) in data set [1] and more than 200 µg/mL in the data set on Escherichia coli [3]. The ED50 in the data set on Escherichia coli [7] was 62.5 mg/kg; in the data set on Staphylococcus aureus [2], 15.8 mg/kg; with Escherichia coli [8] it was 91 mg/kg; in the data set on Staphylococcus aureus [5] it was more than 13 mg/kg.

As for `CS(=O)(=O)c1ccc(N2CC(CNC(=O)CCl)OC2=O)cc1` (stereo not drawn) [Example 67], the MIC in data set [1] is 3.2 µg/mL (≈ 9.23 µM); in the data set on Escherichia coli [3] it was 2.5 µg/mL (≈ 7.21 µM). The ED50 in the data set on Escherichia coli [7] is more than 120 mg/kg; with Staphylococcus aureus [2], 42.5 mg/kg; with Escherichia coli [8], 99 mg/kg; in the data set with Staphylococcus aureus [5], 18.6 mg/kg.

For `CCCCc1ccc(N2CC(CNC(C)=O)OC2=O)cc1` (stereo not drawn) [Example 81], the MIC in data set [1] is 6.2 µg/mL (≈ 21.4 µM); with Escherichia coli [3], more than 200 µg/mL. Besides, the ED50 in the data set on Escherichia coli [7] was more than 120 mg/kg; in the data set on Staphylococcus aureus [2], 47.9 mg/kg; in the data set on Escherichia coli [8], more than 120 mg/kg; in the data set on Staphylococcus aureus [5], 27.9 mg/kg.

Take `CCc1ccc(N2CC(CNC(C)=O)OC2=O)cc1` (stereo not drawn) [Example 82]: the MIC in data set [1] is 3.1 µg/mL (≈ 11.8 µM); with Escherichia coli [3], more than 200 µg/mL. Further, the ED50 in the data set on Escherichia coli [7] came to 65.9 mg/kg; in the data set on Staphylococcus aureus [2], 2.7 mg/kg; with Escherichia coli [8] it was 95.1 mg/kg; in the data set with Staphylococcus aureus [5], 2 mg/kg.

For the molecule `CCc1ccc(N2CC(CNC(=O)OC)OC2=O)cc1` (stereo not drawn) [Example 83], the MIC in data set [1] was 12.5 µg/mL (≈ 44.9 µM); in the data set on Escherichia coli [3] it was more than 200 µg/mL. Besides, the ED50 is more than 120 mg/kg with Escherichia coli [7], 9.6 mg/kg with Staphylococcus aureus [2], more than 12 mg/kg in the data set on Escherichia coli [8] and 6.6 mg/kg in the data set with Staphylococcus aureus [5].

For `CC(=O)NCC1CN(c2ccc(Br)cc2)C(=O)O1` (stereo not drawn) [Example 86], the MIC in data set [1] is 6.25 µg/mL (≈ 20 µM); in the data set with Escherichia coli [3], more than 200 µg/mL. The ED50 in the data set with Escherichia coli [7] was more than 40 mg/kg; in the data set with Staphylococcus aureus [2], 6.9 mg/kg; with Escherichia coli [8] it was more than 40 mg/kg; in the data set on Staphylococcus aureus [5], 4.7 mg/kg.

With `CC(=O)NCC1CN(c2ccc(Cl)cc2)C(=O)O1` (stereo not drawn) [Example 87], the MIC was 100 µg/mL (≈ 372 µM) in data set [1] and more than 200 µg/mL in the data set on Escherichia coli [3]. Also, the ED50 in the data set with Escherichia coli [7] is more than 120 mg/kg; in the data set on Staphylococcus aureus [2] it was 42 mg/kg; in the data set with Escherichia coli [8], more than 120 mg/kg; in the data set with Staphylococcus aureus [5] it was 10.5 mg/kg.

`CC(=O)NCC1CN(c2ccc(F)cc2)C(=O)O1` (stereo not drawn) [Example 88]: the MIC (in data set [1]; in the data set with Escherichia coli [3]) was more than 200 µg/mL throughout. For the same molecule, the ED50 in the data set with Escherichia coli [7] was more than 120 mg/kg; in the data set with Staphylococcus aureus [2] it was 23.6 mg/kg; in the data set with Escherichia coli [8], more than 120 mg/kg; with Staphylococcus aureus [5], 21.9 mg/kg.

For `CS(=O)(=O)c1ccc(N2CC(CNC(=O)CCCl)OC2=O)cc1` (stereo not drawn) [Example 94], the MIC in data set [1] was 18.8 µg/mL (≈ 52.1 µM); with Escherichia coli [3], 200 µg/mL (≈ 554 µM). In addition, the ED50 amounted to 76.8 mg/kg in the data set with Escherichia coli [7], 30.2 mg/kg in the data set with Staphylococcus aureus [2], 46.7 mg/kg with Escherichia coli [8] and 18.7 mg/kg with Staphylococcus aureus [5].

For the molecule `CC(=O)c1ccc(N2CC(CNC(=O)CCCl)OC2=O)cc1` (stereo not drawn) [Example 95], the MIC in data set [1] is 12.5 µg/mL (≈ 38.5 µM); in the data set with Escherichia coli [3] it was more than 200 µg/mL. The ED50 with Escherichia coli [7] is more than 120 mg/kg; with Staphylococcus aureus [2], 10.9 mg/kg; in the data set with Escherichia coli [8], 60.7 mg/kg; in the data set with Staphylococcus aureus [5] it was 7.7 mg/kg.

With `COC(=O)NCC1CN(c2ccc(S(=O)(=O)N=[N+]=[N-])cc2)C(=O)O1` (stereo not drawn) [Example 117], the MIC in data set [1] was 200 µg/mL (≈ 563 µM); in the data set on Escherichia coli [3] it was more than 200 µg/mL. Also, the ED50 with Escherichia coli [7] is more than 120 mg/kg; with Staphylococcus aureus [2], 16.1 mg/kg; with Escherichia coli [8], more than 120 mg/kg; with Staphylococcus aureus [5], 7.2 mg/kg.

For `CCC(=O)c1ccc(N2CC(CNC(C)=O)OC2=O)cc1` (stereo not drawn) [Example 134, l-N-[2-oxo-3-[4-(1-oxopropyl)phenyl]-5-oxazolidinylmethyl]acetamide], the values for the MIC (in data set [1]; in the data set on Escherichia coli [3]) were 0.4 µg/mL (≈ 1.38 µM) and 25 µg/mL (≈ 86.1 µM), respectively. Also, the ED50 in the data set on Escherichia coli [7] was 46.9 mg/kg; in the data set on Staphylococcus aureus [2], less than 4.4 mg/kg; in the data set on Escherichia coli [8], 42.1 mg/kg; with Staphylococcus aureus [5] it was less than 4.4 mg/kg.

In the case of `CC(=O)NCC1CN(c2ccc(C(=O)CCl)cc2)C(=O)O1` (stereo not drawn) [Example 135, l-N-[3-[4-(chloroacetyl)phenyl]-2-oxo-5-oxazolidinylmethyl]acetamide], the MIC stood at 0.15 µg/mL (≈ 0.483 µM) in data set [1] and 100 µg/mL (≈ 322 µM) with Escherichia coli [3]. Moreover, the ED50 in the data set on Escherichia coli [7] was 100 mg/kg; in the data set with Staphylococcus aureus [2], less than 4.4 mg/kg; in the data set with Escherichia coli [8], 100 mg/kg; in the data set with Staphylococcus aureus [5] it was less than 4.4 mg/kg.

Turning to `CCCC(=O)c1ccc(N2CC(CNC(C)=O)OC2=O)cc1` (stereo not drawn) [Example 138, l-N-[2-oxo-3-[4-(1-oxobutyl)phenyl]-5-oxazolidinylmethyl]acetamide], the MIC in data set [1] was 1 µg/mL (≈ 3.29 µM); with Escherichia coli [3], more than 128 µg/mL. The ED50 is more than 120 mg/kg in the data set on Escherichia coli [7], 9.6 mg/kg with Staphylococcus aureus [2], more than 120 mg/kg with Escherichia coli [8] and 5.1 mg/kg in the data set with Staphylococcus aureus [5].

Consider `CC(=O)NCC1CN(c2ccc(C(C)=O)c(C)c2)C(=O)O1` (stereo not drawn) [Example 142], for which the MIC in data set [1] was 1 µg/mL (≈ 3.44 µM); in the data set with Escherichia coli [3] it was more than 128 µg/mL. The ED50 is 52.1 mg/kg in the data set with Escherichia coli [7], 1.8 mg/kg in the data set on Staphylococcus aureus [2], 52.1 mg/kg with Escherichia coli [8] and 1.8 mg/kg in the data set with Staphylococcus aureus [5].

On to `CS(=O)(=O)c1ccc(N2CC(CNC(=O)CN=[N+]=[N-])OC2=O)cc1` (stereo not drawn) [Example 158], for which the MIC amounted to 6.3 µg/mL (≈ 17.8 µM) in data set [1] and 50 µg/mL (≈ 141 µM) in the data set on Escherichia coli [3]. Besides, the ED50 with Escherichia coli [7] is 56.5 mg/kg; in the data set on Staphylococcus aureus [2] it was 11.4 mg/kg; in the data set with Escherichia coli [8], 25 mg/kg; in the data set on Staphylococcus aureus [5], less than 13 mg/kg.

For the molecule `CC(=O)c1ccc(N2CC(CNC(=O)C(Cl)Cl)OC2=O)cc1` (stereo not drawn) [Example 172], the MIC is 4 µg/mL (≈ 11.6 µM) in data set [1] and more than 128 µg/mL with Escherichia coli [3]. In addition, the ED50 is more than 120 mg/kg in the data set with Escherichia coli [7], 10.2 mg/kg in the data set with Staphylococcus aureus [2], more than 120 mg/kg in the data set on Escherichia coli [8] and 13.6 mg/kg in the data set with Staphylococcus aureus [5].
